Source: ChEMBL document CHEMBL2321704, “Cis-amide isosteric replacement in thienobenzoxepin inhibitors of PI3-kinase” (Bioorg Med Chem Lett, 2013)
pIC50: −log10 of the molar value. Converted amounts (≈) assume the structure as drawn.

How the values were obtained:
[1] = Apparent permeability from apical to basal side of MDCK cells; format: ADME, cell-based, Canis lupus familiaris; conditions: dog
[2] = system: MCF7; experiment: Antiproliferative activity against human MCF7 cells expressing neo-HER2 after 3 days by CellTiter-Glo assay; format: functional, cell-based; conditions: MCF7, 72 h
[3] = system: PC-3; experiment: Antiproliferative activity against human PC3 cells after 4 days by CellTiter-Glo assay; format: functional, cell-based; conditions: PC-3, 96 h
[4] = Clearance in human liver microsomes; format: ADME, Microsome
[5] = Clearance in rat liver microsomes; format: ADME, Microsome
[6] = target: T1, Phosphatidylinositol 4,5-bisphosphate 3-kinase catalytic subunit alpha isoform (Homo sapiens, UniProt P42336); experiment: Inhibition of recombinant PI3Kalpha (unknown origin)-mediated 3,4,5-inositoltriphosphate formation after 30 mins by TAMRA-PIP3-based competitive fluorescence polarization assay
[7] = target: T1, Phosphatidylinositol 4,5-bisphosphate 3-kinase catalytic subunit alpha isoform
Description: Inhibition of PI3Kalpha-mediated AKT Ser 473 phosphorylation in human PC3 cells

[8] = Kinetic solubility of the compound by dry down method; format: physicochemical; conditions: read-out: Kinetic_solubility
[9] = system: Mus musculus; experiment: Unbound AUC in nude mouse at 100 mg/kg; format: ADME, organism-based; parameters: dose 100 mg/kg; conditions: in vivo
[10] = system: Mus musculus; experiment: Unbound AUC in nude mouse at 25 mg/kg; format: ADME, organism-based; parameters: dose 25 mg/kg; conditions: in vivo
[11] = system: Mus musculus; experiment: Unbound AUC in nude mouse at 50 mg/kg; format: ADME, organism-based; parameters: dose 50 mg/kg; conditions: in vivo
[12] = Thermodynamic solubility of the compound at pH 7.4; format: physicochemical; conditions: buffer, read-out: Therm_solubility
[13] = Plasma clearance in Sprague-Dawley rat at 1 mg/kg, iv; format: ADME, organism-based; parameters: dose 1 mg/kg, route intravenous

T1 sequence (P42336 whole entry, canonical isoform): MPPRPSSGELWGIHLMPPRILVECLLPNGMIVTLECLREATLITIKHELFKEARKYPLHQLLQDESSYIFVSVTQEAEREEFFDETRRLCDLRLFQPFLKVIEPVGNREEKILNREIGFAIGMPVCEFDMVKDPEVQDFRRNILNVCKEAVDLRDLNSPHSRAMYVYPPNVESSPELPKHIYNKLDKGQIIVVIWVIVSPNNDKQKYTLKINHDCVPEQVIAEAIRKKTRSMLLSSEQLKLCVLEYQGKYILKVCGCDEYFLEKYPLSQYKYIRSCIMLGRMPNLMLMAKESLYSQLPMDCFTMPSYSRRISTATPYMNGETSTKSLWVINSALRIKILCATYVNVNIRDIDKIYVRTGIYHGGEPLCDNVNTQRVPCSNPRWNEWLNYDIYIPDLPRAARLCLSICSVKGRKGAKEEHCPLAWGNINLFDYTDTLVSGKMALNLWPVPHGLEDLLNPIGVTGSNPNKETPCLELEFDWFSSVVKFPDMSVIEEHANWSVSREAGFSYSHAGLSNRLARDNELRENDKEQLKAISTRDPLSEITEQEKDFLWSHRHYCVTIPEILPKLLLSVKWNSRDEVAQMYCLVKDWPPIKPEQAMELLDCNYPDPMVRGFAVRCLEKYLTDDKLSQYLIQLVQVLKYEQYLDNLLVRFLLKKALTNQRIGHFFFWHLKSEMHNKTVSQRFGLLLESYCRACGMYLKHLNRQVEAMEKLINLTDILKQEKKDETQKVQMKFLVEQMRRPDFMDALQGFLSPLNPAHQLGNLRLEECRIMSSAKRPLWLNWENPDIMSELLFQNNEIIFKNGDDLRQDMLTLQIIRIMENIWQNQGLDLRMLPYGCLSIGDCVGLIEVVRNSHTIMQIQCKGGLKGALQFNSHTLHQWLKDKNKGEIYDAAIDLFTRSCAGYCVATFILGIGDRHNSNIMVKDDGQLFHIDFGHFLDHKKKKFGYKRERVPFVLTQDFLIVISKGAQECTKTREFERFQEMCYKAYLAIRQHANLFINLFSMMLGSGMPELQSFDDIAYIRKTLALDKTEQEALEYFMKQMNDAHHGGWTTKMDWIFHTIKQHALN

Structure (SMILES) | CLhep predicted [4] | CLhep predicted [5] | pIC50 [6] | pIC50 [7] | solubility kinetic [8] | further results
CN(C(=O)c1cc2c(s1)-c1ccc(C(N)=O)cc1OCC2)c1ccccc1Cl | 18 mL/min/kg | 43 mL/min/kg | 8.82 | 7.00 |  | Papp A→B [1]: 2.1 ×10⁻⁶ cm/s; pIC50 [2]: < 5.39; pIC50 [3]: < 5.46
CN(C(=O)c1cc2c(s1)-c1ccccc1OCC2)C1CCCCC1 |  |  | 6.05 |  |  | 
CC(C)N(C)C(=O)c1cc2c(s1)-c1ccccc1OCC2 |  |  | < 5.70 |  |  | 
Nc1nc(-c2cc3c(s2)-c2ccccc2OCC3)c(-c2ccccc2Cl)s1 |  |  | > 9.30 | 7.64 | 4 µM (≈ 1.64 µg/mL) | 
CC(=O)Nc1nc(-c2cc3c(s2)-c2ncccc2OCC3)c(-c2ccccc2Cl)[nH]1 |  |  | > 8.85 | 7.44 | 41 µM (≈ 17.9 µg/mL) | 
O=c1[nH]nc(-c2cc3c(s2)-c2ccccc2OCC3)n1-c1ccccc1Cl |  |  | 8.92 | 7.70 |  | 
NC(=O)c1ccc2c(c1)OCCc1cc(-c3n[nH]c(=O)n3-c3ccccc3Cl)sc1-2 |  |  | > 9.30 | 7.70 | 15 µM (≈ 6.58 µg/mL) | 
CC(C)n1ncnc1-c1cc2c(s1)-c1ccc(C(N)=O)cc1OCC2 | 10 mL/min/kg | 29 mL/min/kg |  |  | > 200 µM | fAUC [9]: 17.8 µM·h; fAUC [10]: 5.7 µM·h; fAUC [11]: 13.6 µM·h; solubility thermodynamic [12]: 53 µg/mL (≈ 150 µM); Papp A→B [1]: 20 ×10⁻⁶ cm/s; clearance [13]: 13 mL/min/kg
CC(C)Cn1ncnc1-c1cc2c(s1)-c1ccc(C(N)=O)cc1OCC2 | 19 mL/min/kg | 49 mL/min/kg | 8.40 | 6.55 | > 200 µM | clearance [13]: 112 mL/min/kg
NC(=O)c1ccc2c(c1)OCCc1cc(-c3ncnn3C3CCC3)sc1-2 | 19 mL/min/kg | 44 mL/min/kg | 8.10 | 6.25 | 37 µM (≈ 13.6 µg/mL) | clearance [13]: 61 mL/min/kg
NC(=O)c1ccc2c(c1)OCCc1cc(-c3ncnn3CCO)sc1-2 | 10 mL/min/kg | 25 mL/min/kg | 7.82 | < 6.00 | > 200 µM | 
CN(C)CCn1ncnc1-c1cc2c(s1)-c1ccc(C(N)=O)cc1OCC2 | 14 mL/min/kg | 38 mL/min/kg | 6.85 |  | 128 µM (≈ 49.1 µg/mL) | 
CC(C)(O)Cn1ncnc1-c1cc2c(s1)-c1ccc(C(N)=O)cc1OCC2 | 11 mL/min/kg | 15 mL/min/kg | 8.40 | 6.32 | > 200 µM | clearance [13]: 57 mL/min/kg
NC(=O)c1ccc2c(c1)OCCc1cc(-c3ncnn3CC(F)(F)F)sc1-2 | 7 mL/min/kg | 12 mL/min/kg | 8.15 | 6.31 | > 200 µM | clearance [13]: 11 mL/min/kg
CN(C(=O)c1cc2c(s1)-c1ccccc1OCC2)c1ccc(F)cc1F |  |  | 7.28 | < 6.00 |  | 
CN(C(=O)c1cc2c(s1)-c1ncccc1OCC2)c1ccccc1Cl |  |  | 8.15 | < 6.00 | 41 µM (≈ 15.2 µg/mL) | 
Clc1ccccc1-n1cnnc1-c1cc2c(s1)-c1ccccc1OCC2 |  |  | 8.14 | 7.13 | 15 µM (≈ 5.7 µg/mL) | 
NC(=O)c1ccc2c(c1)OCCc1cc(-c3nncn3-c3ccccc3Cl)sc1-2 |  |  | > 9.30 | 7.22 | 9 µM (≈ 3.81 µg/mL) | 
NC(=O)c1ccc2c(c1)OCCc1cc(-c3nnnn3-c3ccccc3Cl)sc1-2 |  |  | > 9.30 | 7.38 | > 200 µM | 
Clc1ccccc1-c1ocnc1-c1cc2c(s1)-c1ncccc1OCC2 |  |  | 7.92 | 6.60 | 41 µM (≈ 15.6 µg/mL) | 
Fc1ccc(-n2ncnc2-c2cc3c(s2)-c2ccccc2OCC3)c(F)c1 |  |  | 8.92 | 6.96 | 4.1 µM (≈ 1.56 µg/mL) | 
NC(=O)c1ccc2c(c1)OCCc1cc(-c3ncnn3-c3ccc(F)cc3F)sc1-2 | 7 mL/min/kg | 24 mL/min/kg | > 9.30 | 7.77 | > 200 µM | fAUC [9]: 0.54 µM·h; fAUC [10]: 0.26 µM·h; fAUC [11]: 0.53 µM·h; solubility thermodynamic [12]: < 1 µg/mL; Papp A→B [1]: 13 ×10⁻⁶ cm/s; pIC50 [2]: 7.64; pIC50 [3]: 6.74; clearance [13]: 38 mL/min/kg
NC(=O)c1ccc2c(c1)OCCc1cc(-c3n[nH]cc3-c3ccccc3Cl)sc1-2 |  |  | 9.00 | 7.55 | 12 µM (≈ 5.06 µg/mL) | 
